The values below come from ChEMBL document CHEMBL4043209, “1-Phenyl-1H-indole derivatives as a new class of Bcl-2/Mcl-1 dual inhibitors: Design, synthesis, and preliminary biological evaluation” (Bioorg Med Chem, 2017).

In test [1] the target is Apoptosis regulator Bcl-2 (Homo sapiens, UniProt P10415). The test is described as follows: Inhibition of 5-FAM-Bid-BH3 peptide binding to Bcl2 (unknown origin) pre-incubated for 30 mins followed by further incubation with 5-FAM-Bid-BH3 peptide for 20 mins by fluorescence polarization assay.
Test [2] concerns the target Bcl-2-like protein 1 (Homo sapiens, UniProt Q07817). The test is described as follows: Inhibition of 5-FAM-Bid-BH3 peptide binding to Bcl-XL (unknown origin) pre-incubated for 30 mins followed by further incubation with 5-FAM-Bid-BH3 peptide for 20 mins by fluorescence polarization assay.
Test [3] addresses Induced myeloid leukemia cell differentiation protein Mcl-1 (Homo sapiens, UniProt Q07820). Briefly: Inhibition of 5-FAM-Bid-BH3 peptide binding to Mcl1 (unknown origin) pre-incubated for 30 mins followed by further incubation with 5-FAM-Bid-BH3 peptide for 20 mins by fluorescence polarization assay.
Test [4] deals with MDA-MB-231. The test is described as follows: Antiproliferative activity against human MDA-MB-231 cells incubated for 48 hrs by MTT assay. To be noted: MDA-MB-231, 48 h. The test is classed as functional, cell-based.
Test [5] has as its system PC-3. The test is described as follows: Antiproliferative activity against human PC3 cells incubated for 48 hrs by MTT assay. It is filed as functional, cell-based. To be noted: PC-3, 48 h.
Test [6] relates to K562. The test is described as follows: Antiproliferative activity against human K562 cells incubated for 48 hrs by MTT assay. The settings on record: K562, 48 h. It is filed as functional, cell-based.

Sequence of Induced myeloid leukemia cell differentiation protein Mcl-1 (Q07820 whole entry): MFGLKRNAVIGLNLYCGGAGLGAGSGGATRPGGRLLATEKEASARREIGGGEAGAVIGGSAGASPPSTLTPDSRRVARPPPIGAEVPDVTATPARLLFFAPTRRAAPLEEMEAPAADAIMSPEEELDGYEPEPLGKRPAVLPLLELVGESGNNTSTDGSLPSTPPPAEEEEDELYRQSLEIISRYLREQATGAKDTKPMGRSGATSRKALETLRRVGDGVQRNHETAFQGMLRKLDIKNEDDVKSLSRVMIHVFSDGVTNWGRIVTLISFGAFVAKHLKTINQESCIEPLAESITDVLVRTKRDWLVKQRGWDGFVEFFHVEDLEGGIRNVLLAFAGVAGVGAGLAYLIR
Sequence of Bcl-2-like protein 1 (Q07817 whole entry): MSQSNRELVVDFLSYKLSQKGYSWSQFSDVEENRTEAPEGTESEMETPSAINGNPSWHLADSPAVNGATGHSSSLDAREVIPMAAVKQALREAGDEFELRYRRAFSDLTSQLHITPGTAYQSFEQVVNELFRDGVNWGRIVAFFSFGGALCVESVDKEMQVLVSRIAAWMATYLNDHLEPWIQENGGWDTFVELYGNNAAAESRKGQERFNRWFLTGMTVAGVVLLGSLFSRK
Sequence of Apoptosis regulator Bcl-2 (P10415 whole entry): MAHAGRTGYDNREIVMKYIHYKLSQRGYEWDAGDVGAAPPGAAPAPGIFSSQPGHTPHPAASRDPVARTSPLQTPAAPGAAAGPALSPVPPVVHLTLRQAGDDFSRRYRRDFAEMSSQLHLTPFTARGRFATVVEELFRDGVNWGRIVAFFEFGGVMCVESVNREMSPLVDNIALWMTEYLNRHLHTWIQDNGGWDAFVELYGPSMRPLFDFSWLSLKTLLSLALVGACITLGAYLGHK

Regarding `Cc1ccc(S(=O)(=O)NC(=O)[C@H](Cc2ccccc2)N2C(=O)/C(=C/c3ccc(-c4ccccc4)cc3)SC2=S)cc1`, the inhibition constant Ki in test [1] amounted to 0.94 µM; in test [2] (read-out: Ki) it was 1.2 µM; in test [3], 0.47 µM. For the same compound, the IC50 in test [4] amounted to 45.9 µM; in test [5], 30.1 µM; in test [6], 44 µM. With `COc1ccc2c(c1)c(CC(=O)N[C@@H](Cc1ccccc1)C(=O)NS(=O)(=O)c1ccc([N+](=O)[O-])cc1)c(C)n2-c1ccc(-c2ccccc2)cc1`, the Ki in test [1] is 0.91 µM.

For the compound `COc1ccc2c(c1)c(CC(=O)N[C@@H](Cc1ccccc1)C(=O)NS(=O)(=O)c1ccc(Cl)c([N+](=O)[O-])c1)c(C)n2-c1ccc(-c2ccccc2)cc1`, the figures for the Ki in test [1], in test [2] and in test [3] were 0.58 µM, “Not Active” and 0.48 µM, respectively. Besides, the concentration for half-maximal inhibition (IC50) amounted to 42.1 µM in test [4], 13.9 µM in test [5] and 13 µM in test [6]. As for `COc1ccc2c(c1)c(CC(=O)NS(=O)(=O)c1ccc(NCCSc3ccccc3)c([N+](=O)[O-])c1)c(C)n2-c1ccc(-c2ccccc2)cc1`, the Ki in test [1] was more than 10 µM. `COc1ccc2c(c1)c(CC(=O)NS(=O)(=O)c1ccc(N3CCN(C)CC3)c([N+](=O)[O-])c1)c(C)n2-c1ccc(C)cc1`: the inhibitory constant (Ki) in test [1] was more than 10 µM. Compound `COc1ccc2c(c1)c(CC(=O)NS(=O)(=O)c1ccc(NC3CCCCC3)c([N+](=O)[O-])c1)c(C)n2-c1ccc(-c2ccccc2)cc1` registered a Ki in test [1] of more than 10 µM.

As to `COc1ccc2c(c1)c(CC(=O)N[C@@H](Cc1c[nH]c3ccccc13)C(=O)NS(=O)(=O)c1ccc(Cl)c([N+](=O)[O-])c1)c(C)n2-c1ccc(-c2ccccc2)cc1`, affinity in test [1] was put at a Ki of 0.83 µM. In turn, `COc1ccc2c(c1)c(CC(=O)NS(=O)(=O)c1ccc(NCc3ccccc3)c([N+](=O)[O-])c1)c(C)n2-c1ccc(C)cc1` registered an inhibitory constant (Ki) in test [1] of more than 10 µM. On the same count and under the same terms, with `COc1ccc2c(c1)c(CC(=O)N[C@@H](Cc1ccccc1)C(=O)NS(=O)(=O)c1ccccc1)c(C)n2-c1ccc(C)cc1` the figure was more than 10 µM; with `COc1ccc(S(=O)(=O)NC(=O)Cc2c(C)n(-c3ccc(-c4ccccc4)cc3)c3ccc(OC)cc23)cc1`, more than 10 µM; with `COc1ccc2c(c1)c(CC(=O)N[C@@H](Cc1c[nH]c3ccccc13)C(=O)NS(=O)(=O)c1ccccc1)c(C)n2-c1ccc(-c2ccccc2)cc1`, more than 10 µM. Same read-out and setting: with `COc1ccc2c(c1)c(CC(=O)NS(=O)(=O)c1ccc(NCCCc3ccccc3)c([N+](=O)[O-])c1)c(C)n2-c1ccc(-c2ccccc2)cc1` the figure was more than 10 µM; with `COc1ccc2c(c1)c(CC(=O)NS(=O)(=O)c1ccc(Cl)c([N+](=O)[O-])c1)c(C)n2-c1ccc(C)cc1`, more than 10 µM.

Regarding `COc1ccc2c(c1)c(CC(=O)N[C@@H](Cc1ccccc1)C(=O)NS(=O)(=O)c1ccccc1)c(C)n2-c1ccc(-c2ccccc2)cc1`, the inhibition constant Ki in test [1] is 0.35 µM; in test [2] it was “Not Active”; in test [3] it was 0.96 µM. Moreover, the half-inhibitory concentration (IC50) in test [4] was 33.5 µM; in test [5] it was 17.5 µM; in test [6] it was 18.8 µM. In test [1], `COc1ccc2c(c1)c(CC(=O)N[C@@H](Cc1ccccc1)C(=O)NS(=O)(=O)c1ccc(-c3ccccc3)cc1)c(C)n2-c1ccc(-c2ccccc2)cc1` showed an inhibitory constant (Ki) of more than 10 µM.

In the case of `COc1ccc2c(c1)c(CC(=O)NS(=O)(=O)c1ccc(N3CCOCC3)c([N+](=O)[O-])c1)c(C)n2-c1ccc(-c2ccccc2)cc1`, the Ki in test [1] is more than 10 µM. Still for that read-out and setting: to `COc1ccc2c(c1)c(CC(=O)NS(=O)(=O)c1ccc(Cl)c([N+](=O)[O-])c1)c(C)n2-c1ccc(-c2ccccc2)cc1` belongs 0.72 µM. On to `COc1ccc2c(c1)c(CC(=O)N[C@@H](Cc1ccccc1)C(=O)NS(=O)(=O)c1ccc(Cl)cc1)c(C)n2-c1ccc(-c2ccccc2)cc1`, for which the Ki in test [1] is 0.91 µM. As to `COc1ccc(S(=O)(=O)NC(=O)Cc2c(C)n(-c3ccc(C)cc3)c3ccc(OC)cc23)cc1`, the Ki in test [1] was more than 10 µM. For `COc1ccc2c(c1)c(CC(=O)N[C@@H](Cc1ccc(OCc3ccc([N+](=O)[O-])cc3)cc1)C(=O)NS(=O)(=O)c1ccc(Cl)c([N+](=O)[O-])c1)c(C)n2-c1ccc(C)cc1`, the inhibition constant Ki in test [1] was determined as 0.72 µM. Still for that read-out and setting: with `COc1ccc2c(c1)c(CC(=O)N[C@@H](Cc1ccc(OCc3ccc([N+](=O)[O-])cc3)cc1)C(=O)NS(=O)(=O)c1ccc(Cl)c([N+](=O)[O-])c1)c(C)n2-c1ccc(-c2ccccc2)cc1` the figure was more than 10 µM; with `COc1ccc2c(c1)c(CC(=O)NS(=O)(=O)c1ccc(N3CCOCC3)c([N+](=O)[O-])c1)c(C)n2-c1ccc(C)cc1`, more than 10 µM; with `COc1ccc2c(c1)c(CC(=O)NS(=O)(=O)c1ccccc1)c(C)n2-c1ccc(-c2ccccc2)cc1`, more than 10 µM. As to `COc1ccc(S(=O)(=O)NC(=O)[C@H](Cc2ccccc2)NC(=O)Cc2c(C)n(-c3ccc(-c4ccccc4)cc3)c3ccc(OC)cc23)cc1`, the Ki in test [1] is 0.47 µM; in test [2], “Not Active”; in test [3], 0.88 µM. The IC50 in test [4] was 38.6 µM; in test [5] it was 23.5 µM; in test [6], 27.5 µM. Consider `COc1ccc(S(=O)(=O)NC(=O)[C@H](Cc2c[nH]c3ccccc23)NC(=O)Cc2c(C)n(-c3ccc(-c4ccccc4)cc3)c3ccc(OC)cc23)cc1`, for which, in test [1], the Ki is more than 10 µM.

Take `COc1ccc2c(c1)c(CC(=O)NS(=O)(=O)c1ccc(NCc3ccccc3)c([N+](=O)[O-])c1)c(C)n2-c1ccc(-c2ccccc2)cc1`: the Ki in test [1] was more than 10 µM. The same measure, in the same setting: to `COc1ccc2c(c1)c(CC(=O)NS(=O)(=O)c1ccc([N+](=O)[O-])cc1)c(C)n2-c1ccc(C)cc1` belongs more than 10 µM.
